Source: the NIST ThermoML archive (doi:10.1016/j.tca.2014.11.009)

Experiment: xn = mol fraction of the nth substance listed
Conditions: 100 kPa, Liquid; for speed of sound: Frequency=3 MHz, Sing-around technique in a fixed-path interferometer; for mass density: Vibrating tube method

O=Cc1ccco1 [2-furaldehyde] + CCCCO
Conditions | mass density, 283.15 K [kg/m3] | mass density, 293.15 K [kg/m3] | mass density, 303.15 K [kg/m3] | mass density, 313.15 K [kg/m3] | speed of sound, 283.15 K [m/s] | speed of sound, 293.15 K [m/s] | speed of sound, 303.15 K [m/s] | speed of sound, 313.15 K [m/s]
x1 = 0.0501 | 833.74 | 825.93 | 818 | 809.97 | 1301.8 | 1267.2 | 1233 | 1199.2
x1 = 0.1 | 850.14 | 842.12 | 833.98 | 825.71 | 1310.6 | 1275.9 | 1241.6 | 1207.7
x1 = 0.15 | 866.88 | 858.65 | 850.29 | 841.84 | 1319.6 | 1285 | 1250.5 | 1216.4
x1 = 0.1999 | 883.58 | 875.14 | 866.67 | 858.15 | 1328.7 | 1293.9 | 1259.3 | 1225.2
x1 = 0.2499 | 900.71 | 892.12 | 883.46 | 874.76 | 1337.3 | 1302.9 | 1268.4 | 1234.2
x1 = 0.3 | 917.89 | 909.1 | 900.31 | 891.55 | 1346.9 | 1312.1 | 1277.6 | 1243.3
x1 = 0.4 | 953.02 | 943.94 | 934.84 | 925.74 | 1365.5 | 1330.9 | 1296.4 | 1262.1
x1 = 0.45 | 970.58 | 961.33 | 952.08 | 942.85 | 1375.2 | 1340.7 | 1306.1 | 1271.7
x1 = 0.5 | 988.52 | 979.14 | 969.78 | 960.42 | 1385.7 | 1351 | 1316.3 | 1281.9
x1 = 0.5473 | 1005.5 | 995.94 | 986.39 | 976.86 | 1395.8 | 1361 | 1326.2 | 1291.7
x1 = 0.6999 | 1060.86 | 1050.92 | 1041.03 | 1031.18 | 1429.8 | 1394.6 | 1359.3 | 1324.3
x1 = 0.8 | 1097.24 | 1087.06 | 1076.9 | 1066.74 | 1452.2 | 1416.4 | 1380.7 | 1345.3
x1 = 0.8497 | 1115.11 | 1104.87 | 1094.66 | 1084.43 | 1463.1 | 1427.1 | 1391.3 | 1355.7
x1 = 0.8999 | 1133.5 | 1123.12 | 1112.74 | 1102.3 | 1474.2 | 1438.1 | 1401.9 | 1366.2
x1 = 1 | 1169.93 | 1159.33 | 1148.69 | 1138.01 | 1495.4 | 1458.8 | 1422.5 | 1386.5

O=Cc1ccco1 [2-furaldehyde] + CCC(C)O
Conditions | mass density, 283.15 K [kg/m3] | mass density, 293.15 K [kg/m3] | mass density, 303.15 K [kg/m3] | mass density, 313.15 K [kg/m3] | speed of sound, 283.15 K [m/s] | speed of sound, 293.15 K [m/s] | speed of sound, 303.15 K [m/s] | speed of sound, 313.15 K [m/s]
x1 = 0.0501 | 831.27 | 822.97 | 814.4 | 805.5 | 1279.1 | 1242.7 | 1206.1 | 1169.4
x1 = 0.1001 | 847.35 | 838.83 | 830.06 | 820.99 | 1289.1 | 1252.7 | 1216.1 | 1179.5
x1 = 0.1507 | 863.92 | 855.21 | 846.24 | 837.01 | 1299.3 | 1263.1 | 1226.6 | 1190
x1 = 0.2001 | 880.27 | 871.37 | 862.24 | 852.86 | 1309.5 | 1273.3 | 1236.9 | 1200.5
x1 = 0.3001 | 913.96 | 904.72 | 895.3 | 885.68 | 1330.4 | 1294.4 | 1258.3 | 1222.1
x1 = 0.3501 | 931.13 | 921.74 | 912.18 | 902.46 | 1341.2 | 1305.4 | 1269.3 | 1233.2
x1 = 0.4001 | 948.49 | 938.98 | 929.33 | 919.51 | 1352 | 1316.4 | 1280.4 | 1244.1
x1 = 0.4501 | 966.01 | 956.37 | 946.59 | 936.66 | 1363.4 | 1327.8 | 1291.9 | 1256
x1 = 0.5 | 983.65 | 973.9 | 964.03 | 954.03 | 1375.1 | 1339.4 | 1303.5 | 1267.6
x1 = 0.55 | 1001.41 | 991.58 | 981.69 | 971.7 | 1387.3 | 1351.4 | 1315.5 | 1279.6
x1 = 0.6 | 1019.4 | 1009.48 | 999.51 | 989.44 | 1399.4 | 1363.4 | 1327.4 | 1291.5
x1 = 0.6501 | 1037.63 | 1027.6 | 1017.53 | 1007.37 | 1411.8 | 1375.7 | 1339.6 | 1303.6
x1 = 0.8001 | 1093.43 | 1083.14 | 1072.78 | 1062.25 | 1448.5 | 1412 | 1375.6 | 1339.5
x1 = 0.8999 | 1131.48 | 1121 | 1110.45 | 1099.81 | 1472.1 | 1435.7 | 1399.2 | 1363.1
x1 = 1 | 1169.93 | 1159.33 | 1148.69 | 1138.01 | 1495.4 | 1458.8 | 1422.5 | 1386.5

O=Cc1ccco1 [2-furaldehyde] + CCO
Conditions | mass density, 283.15 K [kg/m3] | mass density, 293.15 K [kg/m3] | mass density, 303.15 K [kg/m3] | mass density, 313.15 K [kg/m3] | speed of sound, 283.15 K [m/s] | speed of sound, 293.15 K [m/s] | speed of sound, 303.15 K [m/s] | speed of sound, 313.15 K [m/s]
x1 = 0.0486 | 825.34 | 816.58 | 807.7 | 798.67 | 1221.8 | 1187.2 | 1152.6 | 1118.5
x1 = 0.0995 | 852.29 | 843.29 | 834.16 | 824.83 | 1245.2 | 1210.4 | 1175.6 | 1141.2
x1 = 0.15 | 877.44 | 868.21 | 858.83 | 849.37 | 1265.6 | 1230.5 | 1195.7 | 1161.2
x1 = 0.2 | 901.29 | 891.88 | 882.29 | 872.64 | 1284.6 | 1249.7 | 1214.8 | 1180.2
x1 = 0.25 | 924.5 | 914.91 | 905.24 | 895.34 | 1302.7 | 1267.7 | 1232.8 | 1198.2
x1 = 0.3001 | 946.91 | 937.18 | 927.3 | 917.42 | 1320.2 | 1285.2 | 1250.3 | 1215.7
x1 = 0.4501 | 1007.43 | 997.35 | 987.26 | 977.03 | 1367.1 | 1331.9 | 1296.9 | 1262.3
x1 = 0.6501 | 1076.56 | 1066.08 | 1055.65 | 1045.07 | 1421.3 | 1385.7 | 1350.4 | 1315.4
x1 = 0.7007 | 1091.79 | 1081.25 | 1070.76 | 1060.22 | 1433.5 | 1398 | 1362.5 | 1327.2
x1 = 0.7498 | 1105.77 | 1095.26 | 1084.63 | 1074.13 | 1444.7 | 1409.1 | 1373.4 | 1338
x1 = 0.8003 | 1119.65 | 1109.04 | 1098.47 | 1087.81 | 1455.7 | 1419.9 | 1384.2 | 1348.8
x1 = 0.8503 | 1132.81 | 1122.12 | 1111.5 | 1100.88 | 1466.4 | 1430.6 | 1394.6 | 1358.8
x1 = 0.9004 | 1145.37 | 1134.68 | 1124.08 | 1113.48 | 1476.6 | 1440.3 | 1404.2 | 1368.5
x1 = 0.9498 | 1157.85 | 1147.23 | 1136.49 | 1125.72 | 1486.3 | 1450.1 | 1413.8 | 1377.8
x1 = 1 | 1169.93 | 1159.33 | 1148.69 | 1138.01 | 1495.4 | 1458.8 | 1422.5 | 1386.5
